Results on 1 compound are retold here after patent US20240325375A1, “Effect of YEL002 on Psychological and Psychiatric Factors in Health and Disease” (RadMit, Inc., priority 2023, published 2024).

In the experiment the test system is lymphoma. In words: Lymphoma incidence in mice (National Institute of Health experiment). The format is in vivo. The note with it: reduced from 10-20%. The protocol:
In another experiment at the National Institute of Health, in other mice after radiation exposure which caused 90% of them to develop lymphoma, there was a reduction of the lymphoma incidence to 40% and the spontaneous frequency was reduced from 10-20% down to 0%. […] This was observed after treating mice right after birth, if humans are treated later in life it is possible that only 10 or 5 years are added and probably more for DNA repair deficient diseases like ataxia telangiectasia (ATM) which is still very substantial, especially, since it treats and reduces the likelihood of many diseases.

Regarding `COc1ccc2cc(-c3nc4ccc(C)cn4c3NCc3ccco3)c(=O)[nH]c2c1` [YEL002], the spontaneous lymphoma frequency amounted to 0%.
